Data on 8 compounds can be found in US8722642B2, “Multiantivirus compound, composition and method for treatment of virus diseases” (Biocell Laboratories, priority 2011, dated 2014).

The subject of assay [1] is hemagglutinin of influenza virus AFM 1/47 (H1N1). Put plainly: Hemagglutination reaction: influence on hemagglutinin activity of influenza virus. It is filed as biochemical.
Assay [2] concerns influenza virus A/FM/1/47(H1N1), adapted for lungs of white mice. The assay can be described thus: Model of influenza pneumonia in mice. Format: in vivo. Particulars: Tamiflu, dose not given, intra-abdominal.

As to `OC[C@@H](O)[C@@H](O)[C@H](O)[C@H](O)CO` [Mannitol], the “Difference in the virus titers” value in assay [1] (0.5 mg/ml, temperature of reaction 30 ° C.) stood at 0 log2x. Also, the “Virus titer in the experiment” value in assay [1] (0.5 mg/ml, temperature of reaction 30 ° C., control virus 8) was 8 log2x.

On to `CCOC(=O)C1=C[C@@H](OC(CC)CC)[C@H](NC(C)=O)[C@@H](N)C1` [Tamiflu, Oseltamivir], for which, in assay [2] (preventive regimen), the “% died” value came to 30 ± 1.0%, the “CP (Coefficient of protection)” value is 5.0 and the “IE (Index of effectiveness)” value is 70.0. Further, in assay [2] (treatment regimen), the “% died” value turned out to be 20.0 ± 0.5%, the “CP (Coefficient of protection)” value was determined as 10.0 and the “IE (Index of effectiveness)” value turned out to be 80.0.

Poliguanylic acid [Poly G]: the “Difference in virus titers” value in assay [1] (concentration 10 mg/ml) is on record as 0 lg2^X. Moreover, the “Virus titer in the experiment” value in assay [1] (concentration 10 mg/ml, […]) is listed as 9 lg2^X.

Regarding Polyadenylic acid [Poly A], the “Difference in virus titers” value in assay [1] (concentration 10 mg/ml) was found to be 2 lg2^X. Besides, in assay [1] (concentration 10 mg/ml, […]), the “Virus titer in the experiment” value was determined as 7 lg2^X.

For the compound Polycytydilic acid [Poly C], in assay [1] (concentration 10 mg/ml), the “Difference in virus titers” value is reported as 2 lg2^X. In assay [1] (concentration 10 mg/ml, […]), the “Virus titer in the experiment” value was 7 lg2^X.

Regarding “Polyinosinic:polycytidylic acid [PolyIC]”, in assay [1] (concentration 10 mg/ml), the “Difference in virus titers” value is 3 lg2^X. Moreover, the “Virus titer in the experiment” value in assay [1] (concentration 10 mg/ml, […]) is given as 9 lg2^X.

For the compound Polyinosylic acid [Poly I], the “Difference in virus titers” value in assay [1] (concentration 10 mg/ml) turned out to be 3 lg2^X. The “Virus titer in the experiment” value in assay [1] (concentration 10 mg/ml, […]) was found to be 6 lg2^X.

As to Polyurydylic acid [Poly U], the “Difference in virus titers” value in assay [1] (concentration 10 mg/ml) was 2 lg2^X. The “Virus titer in the experiment” value in assay [1] (concentration 10 mg/ml, […]) came to 9 lg2^X.
